Measurements taken from ChEMBL document CHEMBL1201862, “PubChem BioAssay data set” (2004).
The source made the active and inactive calls.

Legend:
[1] = target: Eukaryotic translation initiation factor 4E (Mus musculus, UniProt P63073); test: eIF4E–eIF4G protein interaction inhibitors, dose response, biochemical, TR-FRET (AID 855); assay type: functional;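 also: potency for disrupting eIF4E binding to eIF4GI seen as loss of FRET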
[2] = target: Induced myeloid leukemia cell differentiation protein Mcl-1 (Homo sapiens, UniProt Q07820); assay type: functional
[3] = target: T1, Histone-lysine N-methyltransferase NSD2 (Homo sapiens, UniProt O96028); assay type: biochemical
T1 sequence (O96028 whole entry): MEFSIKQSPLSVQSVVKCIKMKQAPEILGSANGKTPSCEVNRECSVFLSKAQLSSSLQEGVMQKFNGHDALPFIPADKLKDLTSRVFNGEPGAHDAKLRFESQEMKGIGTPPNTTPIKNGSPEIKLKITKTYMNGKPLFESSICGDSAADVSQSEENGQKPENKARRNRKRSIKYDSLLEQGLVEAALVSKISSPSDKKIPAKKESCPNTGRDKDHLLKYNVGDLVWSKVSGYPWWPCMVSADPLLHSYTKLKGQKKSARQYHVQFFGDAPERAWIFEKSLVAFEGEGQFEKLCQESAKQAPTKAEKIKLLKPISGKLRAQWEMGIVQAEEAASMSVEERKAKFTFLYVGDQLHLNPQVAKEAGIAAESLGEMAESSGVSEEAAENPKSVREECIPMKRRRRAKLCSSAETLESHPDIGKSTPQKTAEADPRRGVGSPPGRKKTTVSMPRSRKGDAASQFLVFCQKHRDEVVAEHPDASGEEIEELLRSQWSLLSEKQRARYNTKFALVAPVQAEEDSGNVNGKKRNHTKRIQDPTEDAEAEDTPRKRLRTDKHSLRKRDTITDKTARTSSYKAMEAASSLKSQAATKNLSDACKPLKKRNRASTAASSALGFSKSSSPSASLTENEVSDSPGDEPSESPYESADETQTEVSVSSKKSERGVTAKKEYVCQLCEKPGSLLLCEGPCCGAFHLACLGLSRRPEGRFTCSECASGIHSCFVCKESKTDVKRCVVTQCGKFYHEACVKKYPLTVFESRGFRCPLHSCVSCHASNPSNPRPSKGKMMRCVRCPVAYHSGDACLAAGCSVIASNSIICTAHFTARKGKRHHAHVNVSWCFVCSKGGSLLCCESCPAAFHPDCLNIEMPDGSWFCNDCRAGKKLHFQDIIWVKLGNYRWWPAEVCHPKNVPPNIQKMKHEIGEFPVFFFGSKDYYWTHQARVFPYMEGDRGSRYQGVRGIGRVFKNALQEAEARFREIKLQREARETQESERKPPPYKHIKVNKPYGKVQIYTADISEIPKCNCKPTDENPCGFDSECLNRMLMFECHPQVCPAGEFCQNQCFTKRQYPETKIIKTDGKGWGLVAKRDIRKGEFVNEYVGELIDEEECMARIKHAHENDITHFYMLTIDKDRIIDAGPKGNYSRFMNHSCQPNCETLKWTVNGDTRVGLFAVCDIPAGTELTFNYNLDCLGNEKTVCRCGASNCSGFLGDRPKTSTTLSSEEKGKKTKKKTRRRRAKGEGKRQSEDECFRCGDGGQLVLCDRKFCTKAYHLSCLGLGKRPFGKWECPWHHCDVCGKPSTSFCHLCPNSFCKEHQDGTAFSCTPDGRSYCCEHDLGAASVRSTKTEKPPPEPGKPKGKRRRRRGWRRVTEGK

[4] = system: Streptococcus sp. 'group A'; test: growth inhibition of control SK(-) GAS strain, dose response, counter-screen for streptokinase expression inhibitor project, luminescence, kanamycin, BacTiterGlo, confirmation (AID 1900); assay type: functional, organism-based
Streptokinase A = target: T2, Streptokinase A (Streptococcus pyogenes serotype M1, UniProt P10520); test: S. pyogenes streptokinase expression inhibitors, potency, dose response, plasminogen activation absorbance, OD405 (AID 1914); assay type: functional, Streptococcus pyogenes M1 GAS;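 also: secreted streptokinase activity via plasminogen activation per viability signal from cell pellet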
T2 sequence (P10520 whole entry): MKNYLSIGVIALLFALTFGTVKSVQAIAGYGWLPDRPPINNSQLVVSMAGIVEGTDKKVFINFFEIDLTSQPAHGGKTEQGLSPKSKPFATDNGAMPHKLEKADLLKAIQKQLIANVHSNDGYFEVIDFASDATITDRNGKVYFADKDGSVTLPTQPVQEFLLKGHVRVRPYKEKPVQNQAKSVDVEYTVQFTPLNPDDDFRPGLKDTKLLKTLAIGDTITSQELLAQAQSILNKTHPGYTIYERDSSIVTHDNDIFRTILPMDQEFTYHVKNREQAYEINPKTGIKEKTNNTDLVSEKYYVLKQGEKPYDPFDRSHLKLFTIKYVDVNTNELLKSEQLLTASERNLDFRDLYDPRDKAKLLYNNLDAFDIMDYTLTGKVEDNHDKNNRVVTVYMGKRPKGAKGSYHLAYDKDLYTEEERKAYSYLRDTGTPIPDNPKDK

Streptococcus = test: Group A Streptococcus viability loss, dose response, counter-screen for streptokinase expression inhibitor project, luminescence, BacTiterGlo (AID 1915); assay type: functional, organism-based;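 also: potency for reduction of bacterial viability or growth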
[5] = THP-1 cell cytotoxicity, dose response, cytotoxicity control for Vif-APOBEC3G degradation inhibitor project, THP-1 cells (AID 1117359); assay type: functional; settings: Human immunodeficiency virus 1, THP-1
Large T antigen = Large T antigen (Simian virus 40, UniProt P03070); assay type: functional, Betapolyomavirus macacae;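 also: Confirmatory-stage PubChem screen for compounds that inhibit SV40 T antigen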
Paired box protein Pax-8 = Paired box protein Pax-8 (Homo sapiens, UniProt Q06710); test: inhibitors of PAX8-driven TPO luciferase reporter, dose response, RMG-I cells, cherry-pick (AID 687027); assay type: functional, cell-based;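 also: luciferase reporter driven by Pax8 target thyroperoxidase promoter measured by SteadyGlo luminescence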
[6] = inhibitors of PGC1a acetylation in cells, dose response, cell-based, cherry-picked samples (AID 720514); assay type: functional;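 also: potency may reflect raised or lowered acetylation signal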
Beta-galactosidase = Beta-galactosidase (Escherichia coli, UniProt Q8VNN2); test: beta-galactosidase enzyme inhibitors and activators, dose response, artefact control for CCR6 antagonist project, biochemical, E. coli enzyme, set 3 (AID 504712); assay type: functional
[7] = target: Peroxisome proliferator-activated receptor gamma/Nuclear receptor coactivator 3 (Homo sapiens, UniProt P37231); test: (§1) TR-FRET dose response biochemical High Throughput Screening assay for agonists of the steroid receptor coactivator 3 (SRC-3) recruitment by the peroxisome proliferator-activated receptor gamma (PPAR gamma): non-selective agonists. [Related pubchem assays: 1301 (Confirmation screen.), 1048 (Primary screen.)]; assay type: functional
[8] = target: Peroxisome proliferator-activated receptor gamma/Nuclear receptor coactivator 1 (Homo sapiens, UniProt P37231); test: as §1, with “1 (SRC-1)” for “3 (SRC-3)”, “assays (depositor defined):AID1300, AID1808, AID504735, AID631]” for “assays: 1301 (Confirmation screen.), 1048 (Primary screen.)]”; assay type: protein assay
[9] = target: Peroxisome proliferator-activated receptor gamma/Nuclear receptor coactivator 2 (Homo sapiens, UniProt P37231); test: TR-FRET dose response biochemical High Throughput Screening assay for agonists of the steroid receptor coactivator 2 (SRC-2) recruitment by the peroxisome proliferator-activated receptor gamma (PPAR gamma): non-selective agonists. [Related pubchem assays: 1297, 1032 ]; assay type: functional
Prothrombin = Prothrombin (Homo sapiens, UniProt P00734); test: Thrombin 1536 HTS Dose Response Confirmation. [Related pubchem assays: 1046 (Thrombin 1536 HTS; hits were confirmed in this assay)]; assay type: functional
H4 = test: Luminescence Cell-Based Dose Response HTS to Identify Activators of 5'UTR Stem-Loop Driven Prion Protein mRNA Translation in H4 Neuroglioblastoma Cells. [Related pubchem assays: 1829 (Project Summary), 1814 (Primary HTS)]; assay type: functional; settings: Homo sapiens
[10] = Luminescence Cell-Based Dose Response HTS to Identify Activators of Luciferase Translation or Activity in H4 […] Cells. [Related pubchem assays: 1829 (Project Summary), 1814 (Primary HTS)]; assay type: functional
[11] = P. falciparum Dd2 growth inhibitors, dose response, SYBR Green, cherry-picked samples (AID 1159567); assay type: functional, cell-based
[12] = HepG2 cell cytotoxicity, dose response, cytotoxicity control, cherry-picked samples (AID 1159577); assay type: functional, cell-based

Chain of Large T antigen (P03070 whole entry): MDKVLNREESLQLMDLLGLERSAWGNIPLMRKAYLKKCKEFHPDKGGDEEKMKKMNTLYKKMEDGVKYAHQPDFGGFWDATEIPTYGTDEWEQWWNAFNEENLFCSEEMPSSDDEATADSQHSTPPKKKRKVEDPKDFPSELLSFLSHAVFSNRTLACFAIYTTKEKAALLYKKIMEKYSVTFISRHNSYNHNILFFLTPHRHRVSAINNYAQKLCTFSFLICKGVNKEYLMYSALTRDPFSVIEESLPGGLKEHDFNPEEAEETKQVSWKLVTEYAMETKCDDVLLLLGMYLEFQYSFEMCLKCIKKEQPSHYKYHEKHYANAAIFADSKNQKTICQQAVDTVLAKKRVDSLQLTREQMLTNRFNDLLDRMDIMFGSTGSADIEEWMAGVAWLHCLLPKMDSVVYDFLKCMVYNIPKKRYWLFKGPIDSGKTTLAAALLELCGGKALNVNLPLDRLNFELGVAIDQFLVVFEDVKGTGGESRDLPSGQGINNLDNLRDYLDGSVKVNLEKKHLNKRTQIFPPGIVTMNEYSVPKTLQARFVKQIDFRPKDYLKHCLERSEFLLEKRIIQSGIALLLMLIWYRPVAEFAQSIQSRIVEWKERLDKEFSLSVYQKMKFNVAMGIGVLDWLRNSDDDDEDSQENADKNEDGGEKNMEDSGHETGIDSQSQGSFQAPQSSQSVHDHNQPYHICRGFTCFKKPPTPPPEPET
Chain of Peroxisome proliferator-activated receptor gamma/Nuclear receptor coactivator 3 (P37231 whole entry): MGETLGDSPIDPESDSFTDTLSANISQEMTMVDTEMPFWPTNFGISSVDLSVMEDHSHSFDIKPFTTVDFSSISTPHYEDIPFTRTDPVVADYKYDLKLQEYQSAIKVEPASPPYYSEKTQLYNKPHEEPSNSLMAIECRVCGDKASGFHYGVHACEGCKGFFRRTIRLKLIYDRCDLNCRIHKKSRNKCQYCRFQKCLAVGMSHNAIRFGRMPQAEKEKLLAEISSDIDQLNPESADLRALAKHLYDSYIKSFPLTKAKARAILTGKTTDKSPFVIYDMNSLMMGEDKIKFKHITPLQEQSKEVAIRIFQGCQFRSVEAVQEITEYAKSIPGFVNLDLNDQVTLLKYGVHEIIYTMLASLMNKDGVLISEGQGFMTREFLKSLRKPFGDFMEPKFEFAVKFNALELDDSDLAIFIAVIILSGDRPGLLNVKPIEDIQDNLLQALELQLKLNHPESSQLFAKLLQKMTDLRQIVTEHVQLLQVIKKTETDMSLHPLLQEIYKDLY
Chain of Peroxisome proliferator-activated receptor gamma/Nuclear receptor coactivator 3 (Q9Y6Q9 whole entry, further chain): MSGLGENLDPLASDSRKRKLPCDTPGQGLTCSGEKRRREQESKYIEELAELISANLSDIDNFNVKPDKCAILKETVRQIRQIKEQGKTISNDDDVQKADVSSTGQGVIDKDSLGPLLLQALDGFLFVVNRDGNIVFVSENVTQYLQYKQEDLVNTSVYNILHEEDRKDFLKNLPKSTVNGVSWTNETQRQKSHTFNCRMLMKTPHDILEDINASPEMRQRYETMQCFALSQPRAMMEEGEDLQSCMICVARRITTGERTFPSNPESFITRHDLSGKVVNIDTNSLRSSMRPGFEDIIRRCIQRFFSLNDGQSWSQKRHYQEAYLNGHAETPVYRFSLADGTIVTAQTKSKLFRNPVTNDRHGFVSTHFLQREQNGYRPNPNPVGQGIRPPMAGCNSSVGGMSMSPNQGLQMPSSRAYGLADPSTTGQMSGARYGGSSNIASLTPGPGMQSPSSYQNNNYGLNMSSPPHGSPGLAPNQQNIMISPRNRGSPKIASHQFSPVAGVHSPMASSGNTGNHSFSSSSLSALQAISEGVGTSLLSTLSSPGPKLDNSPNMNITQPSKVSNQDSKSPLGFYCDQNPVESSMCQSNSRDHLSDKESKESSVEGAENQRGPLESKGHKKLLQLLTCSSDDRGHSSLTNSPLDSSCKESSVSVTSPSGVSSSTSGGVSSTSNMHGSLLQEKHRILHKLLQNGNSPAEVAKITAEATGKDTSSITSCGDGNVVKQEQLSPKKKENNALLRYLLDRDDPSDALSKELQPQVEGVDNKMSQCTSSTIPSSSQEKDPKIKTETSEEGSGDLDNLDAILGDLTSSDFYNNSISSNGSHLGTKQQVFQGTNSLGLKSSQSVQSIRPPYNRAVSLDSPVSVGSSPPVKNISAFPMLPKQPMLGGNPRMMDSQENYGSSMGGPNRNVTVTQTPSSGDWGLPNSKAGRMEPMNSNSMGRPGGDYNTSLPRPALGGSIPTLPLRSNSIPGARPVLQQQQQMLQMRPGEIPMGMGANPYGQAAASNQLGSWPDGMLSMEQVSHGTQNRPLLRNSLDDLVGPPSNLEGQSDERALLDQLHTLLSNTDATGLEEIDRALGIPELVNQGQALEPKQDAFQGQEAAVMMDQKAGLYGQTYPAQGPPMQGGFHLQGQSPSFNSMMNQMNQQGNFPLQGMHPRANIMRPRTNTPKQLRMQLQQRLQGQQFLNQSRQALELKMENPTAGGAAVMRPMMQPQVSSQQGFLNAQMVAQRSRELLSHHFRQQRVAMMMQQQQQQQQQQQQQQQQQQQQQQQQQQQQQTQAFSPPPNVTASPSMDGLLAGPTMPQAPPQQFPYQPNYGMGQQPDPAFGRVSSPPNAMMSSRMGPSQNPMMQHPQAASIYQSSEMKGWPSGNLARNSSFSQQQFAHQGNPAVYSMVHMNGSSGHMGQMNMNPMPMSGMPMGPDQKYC
Chain of Peroxisome proliferator-activated receptor gamma/Nuclear receptor coactivator 1 (P37231 whole entry): as the sequence (P37231 whole entry) above
Chain of Peroxisome proliferator-activated receptor gamma/Nuclear receptor coactivator 1 (Q15788 whole entry, further chain): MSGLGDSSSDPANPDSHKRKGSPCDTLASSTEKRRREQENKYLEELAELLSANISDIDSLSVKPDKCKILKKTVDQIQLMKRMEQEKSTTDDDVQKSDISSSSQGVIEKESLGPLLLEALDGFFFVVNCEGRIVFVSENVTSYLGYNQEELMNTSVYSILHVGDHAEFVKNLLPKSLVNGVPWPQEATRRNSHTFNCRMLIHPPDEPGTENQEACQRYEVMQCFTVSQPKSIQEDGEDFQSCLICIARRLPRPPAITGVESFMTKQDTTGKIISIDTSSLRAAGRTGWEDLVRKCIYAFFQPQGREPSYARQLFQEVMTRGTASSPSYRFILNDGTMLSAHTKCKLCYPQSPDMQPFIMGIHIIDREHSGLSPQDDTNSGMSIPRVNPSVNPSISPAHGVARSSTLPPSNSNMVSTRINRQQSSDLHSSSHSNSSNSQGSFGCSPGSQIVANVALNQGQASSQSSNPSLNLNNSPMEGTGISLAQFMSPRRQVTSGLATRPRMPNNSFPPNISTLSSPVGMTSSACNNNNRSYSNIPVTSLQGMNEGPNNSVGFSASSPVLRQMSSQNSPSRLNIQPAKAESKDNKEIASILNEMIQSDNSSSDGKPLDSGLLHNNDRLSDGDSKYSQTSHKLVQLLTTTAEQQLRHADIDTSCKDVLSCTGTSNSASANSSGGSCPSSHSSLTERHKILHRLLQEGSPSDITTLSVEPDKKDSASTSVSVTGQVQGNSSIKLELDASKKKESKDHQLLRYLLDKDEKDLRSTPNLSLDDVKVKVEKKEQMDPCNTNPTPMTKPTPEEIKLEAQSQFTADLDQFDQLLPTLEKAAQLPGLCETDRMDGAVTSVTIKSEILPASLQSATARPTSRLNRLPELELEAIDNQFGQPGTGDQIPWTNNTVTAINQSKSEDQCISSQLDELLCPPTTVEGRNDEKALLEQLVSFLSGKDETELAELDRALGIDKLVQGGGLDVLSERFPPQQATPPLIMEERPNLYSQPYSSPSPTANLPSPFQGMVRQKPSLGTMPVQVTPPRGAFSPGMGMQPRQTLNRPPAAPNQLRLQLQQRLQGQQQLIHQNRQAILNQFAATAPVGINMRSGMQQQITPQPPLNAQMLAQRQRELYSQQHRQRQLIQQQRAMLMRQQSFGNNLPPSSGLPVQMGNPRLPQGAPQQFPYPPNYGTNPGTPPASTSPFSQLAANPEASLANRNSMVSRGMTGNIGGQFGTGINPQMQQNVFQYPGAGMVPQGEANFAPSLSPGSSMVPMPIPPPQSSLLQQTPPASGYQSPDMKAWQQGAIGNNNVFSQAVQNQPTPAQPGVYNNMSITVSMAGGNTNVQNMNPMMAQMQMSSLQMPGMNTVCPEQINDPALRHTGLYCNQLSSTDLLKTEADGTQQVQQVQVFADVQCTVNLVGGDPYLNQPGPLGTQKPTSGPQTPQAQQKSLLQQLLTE
Chain of Induced myeloid leukemia cell differentiation protein Mcl-1 (Q07820 whole entry): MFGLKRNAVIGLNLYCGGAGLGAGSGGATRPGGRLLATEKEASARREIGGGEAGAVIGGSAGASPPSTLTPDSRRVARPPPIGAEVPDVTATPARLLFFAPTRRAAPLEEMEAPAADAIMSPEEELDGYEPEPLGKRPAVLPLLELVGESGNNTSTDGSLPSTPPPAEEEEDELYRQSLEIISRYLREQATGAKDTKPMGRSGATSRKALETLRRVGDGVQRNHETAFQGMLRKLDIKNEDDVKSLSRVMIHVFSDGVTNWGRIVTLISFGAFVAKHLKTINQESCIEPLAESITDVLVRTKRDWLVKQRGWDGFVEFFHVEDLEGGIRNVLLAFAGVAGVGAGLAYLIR

In the case of N#Cc1cc(-c2ccccc2)nn1-c1ccccc1, the IC50 [1] is reported as > 64 µM (inactive) and the IC50 [2] is reported as 1.44 µM (active).

In the case of CNCCCCOc1ccccc1-c1ccccc1, the AC50 [3] is reported as > 20 µM (inactive).

For Cc1cc(C)c(C)c(OCCCOc2cccc3cccnc23)c1, the EC50 [4] was 13.1 µM (active), the EC50 (Streptokinase A) was > 150 µM (not active) and the EC50 (Streptococcus) was 39.4 µM (active). The CC50 [5] was 15.4 µM (active).

For CC(C(=O)NCC1CCCCC1)N(C)Cc1ccc(Br)cc1 (configuration not stated), the CC50 [5] was > 40 µM (active).

For COc1ccc2c(c1OC)C(=O)N(c1ccc(O)cc1)C2, the IC50 (Large T antigen) was > 100 µM (active).

For C[C@H](CO)N1C[C@H](C)[C@H](CN(C)C(=O)NC2CCCCC2)Oc2cc(C#Cc3cccc(F)c3)ccc2S1(=O)=O, the AC50 (Paired box protein Pax-8) was 6.2 µM (active) and the AC50 [6] was 14.1 µM (active).

With CCOc1cccc(C(=O)NC(=S)Nc2cccc(C)c2)c1 the IC50 (Beta-galactosidase) was > 66.6 µM (inactive).

For CCCCN(CC)C(=O)CSc1cc(=O)n(C)c2ccccc12, the EC50 [7] was > 79.4 µM (not active), the EC50 [8] was > 79.4 µM (inactive) and the EC50 [9] was > 79.4 µM (not active).

In the case of O=C(Cc1ccccc1)n1nc(-c2ccccc2)nc1NCc1ccco1, the IC50 (Prothrombin) is reported as 0.1 µM (active).

With CCCCn1nnc(N(C(=O)c2cccs2)C(=O)c2cccs2)n1 the IC50 (Prothrombin) was 0.88 µM (active), the EC50 (H4) was > 120 µM (not active) and the EC50 [10] was 12.6 µM (active).

In the case of OC[C@@H]1[C@H](c2ccc(C#CC3CCCC3)cc2)[C@H]2CN(CCC(F)(F)F)CCCCN12, the AC50 [11] is reported as 1.43 µM (active), the AC50 [12] is reported as 9.12 µM (active) and the AC50 [6] is reported as 10.4 µM (active).
